Reference: patent US20240398893A1, “ANTI-CORONAVIRUS POLYPEPTIDE AS WELL AS DERIVATIVE AND APPLICATION THEREOF” (priority 2021, published 2024)

How the values were obtained:
[1] = during purification process of solid-phase synthesis
[2] = tested on: pseudovirus of the SARS-COV-2 prototype

Molecule | stability [1] | EC50 [2] [nM]
DLGDISGINASVVNIQKEIDRLNEVAKNLNESLIDLQELGSGSGC(CH2COOChol)-NH2 [P3-2-GS-Chol-1] | poor stability | –
DLGDISGINASVVNIQKEIDRLNEVAKNLNESLIDLQELGSGSGC(CH2CONH(PEG)4CH2COOChol)-NH2 [P3-2-GS-PEG-Chol-1] | poor stability | –
CC[C@H](C)[C@H](NC(=O)CNC(=O)[C@H](CO)NC(=O)[C@@H](NC(=O)[C@H](CC(=O)O)NC(=O)CNC(=O)[C@H](Cc1ccccc1)NC(=O)[C@H](CCCCN)NC(=O)[C@@H](N)C(C)C)[C@@H](C)CC)C(=O)N[C@@H](CC(N)=O)C(=O)N[C@@H](C)C(=O)N[C@@H](CO)C(=O)N[C@H](C(=O)N[C@H](C(=O)N[C@@H](CC(N)=O)C(=O)N[C@H](C(=O)N[C@@H](CCCCN)C(=O)N[C@@H](CCC(=O)O)C(=O)N[C@@H](CCC(=O)O)C(=O)N[C@H](C(=O)N[C@@H](CC(=O)O)C(=O)N[C@@H](CCCNC(=N)N)C(=O)N[C@@H](CC(C)C)C(=O)N[C@@H](Cc1ccc(O)cc1)C(=O)N[C@@H](CCC(=O)O)C(=O)N[C@H](C(=O)N[C@H](C(=O)N[C@@H](CCCCN)C(=O)N[C@@H](CC(N)=O)C(=O)N[C@@H](CC(C)C)C(=O)N[C@@H](CC(N)=O)C(=O)N[C@@H](CCC(=O)O)C(=O)N[C@@H](CO)C(=O)N[C@@H](CC(C)C)C(=O)N[C@H](C(=O)N[C@@H](CC(=O)O)C(=O)N[C@@H](CC(C)C)C(=O)N[C@@H](CCC(N)=O)C(=O)N[C@@H](CCC(=O)O)C(=O)N[C@@H](CC(C)C)C(=O)O)[C@@H](C)CC)C(C)C)C(C)C)[C@@H](C)CC)[C@@H](C)CC)C(C)C)C(C)C [P3-3] | – | 501
